The record followed here is ChEMBL document CHEMBL6103591, “Discovery of naphthoquinone-furo-piperidone derivatives as dual targeting agents of STAT3 and NQO1 for the treatment of breast cancer” (Eur J Med Chem, 2025).

Assay [1] has as its system MDA-MB-231. Briefly: Antiproliferative activity against human MDA-MB-231 cells assessed as reduction in cell viability incubated for 48 hrs by MTT assay. The assay is classed as functional, cell-based. The following applies: MDA-MB-231, 48 h. In general terms: Tetrazolium assays rely on reduction of a dye to a coloured formazan, in cell work by metabolically active cells.

Assay [2] concerns MDA-MB-468. The experiment in a line: Antiproliferative activity against human MDA-MB-468 cells assessed as reduction in cell viability incubated for 48 hrs by MTT assay. The assay is classed as functional, cell-based. The following applies: MDA-MB-468, 48 h.

The structures appear in SMILES notation.

For the molecule `O=C1C(=O)c2c(oc3c(=O)n(CCN4CCCCC4)ccc23)-c2ccccc21`, the IC50 was 880 nM in assay [1] and 630 nM in assay [2].
With `C[C@@H]1CN(CCCN2CCc3c(oc4c3C(=O)C(=O)c3ccccc3-4)C2=O)CCO1`, the results for the concentration for half-maximal inhibition (IC50) in assay [1] and in assay [2] were 680 nM and 1580 nM, respectively.
Regarding `CNC(=O)[C@H](Cc1ccccc1)N1CCc2c(oc3c2C(=O)C(=O)c2ccccc2-3)C1=O`, the IC50 in assay [1] stood at 3070 nM; in assay [2], 2550 nM.
On the same counts, the results for `COC(=O)CCCN1CCc2c(oc3c2C(=O)C(=O)c2ccccc2-3)C1=O` are 2510 nM and 2370 nM.
For `O=C1C(=O)c2c(oc3c2CCN(CCCN2CCCC2)C3=O)-c2ccccc21`, in that order: 910 nM and 1330 nM.
For the molecule `COC(=O)[C@H](Cc1ccc(O)cc1)N1CCc2c(oc3c2C(=O)C(=O)c2ccccc2-3)C1=O`, the values for the IC50 in assay [1] and in assay [2] were 3330 nM and 2430 nM, respectively.
On the same counts, the results for `CCN(CC)CCn1ccc2c3c(oc2c1=O)-c1ccccc1C(=O)C3=O` are 1840 nM and 1180 nM.
For `CN(C)CCCN1CCc2c(oc3c2C(=O)C(=O)c2ccccc2-3)C1=O`, in that order: 740 nM and 1430 nM.
Take `O=C1C(=O)c2c(oc3c2CCN([C@H](CO)CCCO)C3=O)-c2ccccc21`: the 50% inhibitory concentration (IC50) in assay [1] and in assay [2] was greater than 4000 nM throughout.
In the case of `O=C1C(=O)c2c(oc3c2CCN(CCN2CCOCC2)C3=O)-c2ccccc21`, the half-inhibitory concentration (IC50) in assay [1] is 1080 nM; in assay [2] it was 1960 nM.
On the same counts, the results for `COC(=O)[C@H](Cc1ccccc1)N1CCc2c(oc3c2C(=O)C(=O)c2ccccc2-3)C1=O` are 930 nM and 2420 nM.
For `COC(=O)CN1CCc2c(oc3c2C(=O)C(=O)c2ccccc2-3)C1=O`, in that order: 1500 nM and 1550 nM.
For `CNC(=O)[C@H](C)N1CCc2c(oc3c2C(=O)C(=O)c2ccccc2-3)C1=O`, in that order: 2620 nM and 1380 nM.
`O=C1C(=O)c2c(oc3c2CCN([C@H](CO)Cc2ccccc2)C3=O)-c2ccccc21`: the IC50 in assay [1] came out at 930 nM; in assay [2], 2420 nM.
For `O=C1C(=O)c2c(oc3c2CCN(CCCCO)C3=O)-c2ccccc21`, in that order: 2290 nM and 3070 nM.
For the molecule `COC(=O)CC[C@@H](C(=O)OC)N1CCc2c(oc3c2C(=O)C(=O)c2ccccc2-3)C1=O`, the half-maximal inhibitory concentration (IC50) in assay [1] is 3480 nM; in assay [2] it was 2370 nM.
On the same counts, the results for `COC(=O)CCN1CCc2c(oc3c2C(=O)C(=O)c2ccccc2-3)C1=O` are 2530 nM and 2420 nM.
With `C[C@@H]1CN(CCCN2CCc3c(oc4c3C(=O)C(=O)c3ccccc3-4)C2=O)C[C@H](C)N1`, the IC50 in assay [1] was greater than 4000 nM; in assay [2], 2490 nM.
For `CN(C)CCn1ccc2c3c(oc2c1=O)-c1ccccc1C(=O)C3=O`, in that order: 840 nM and 1210 nM.
With `COC(=O)[C@H](CO)N1CCc2c(oc3c2C(=O)C(=O)c2ccccc2-3)C1=O`, the IC50 in assay [1] stood at 3780 nM; in assay [2], 1460 nM.
For `O=C1C(=O)c2c(oc3c2CCN(CCC(=O)N2CCCCC2)C3=O)-c2ccccc21`, in that order: 3690 nM and 2500 nM.
For the molecule `O=C1C(=O)c2c(oc3c2CCN(CCCn2ccnc2)C3=O)-c2ccccc21`, the IC50 in assay [1] was found to be 2940 nM; in assay [2], 2370 nM.
With `CNC(=O)[C@H](CC(C)C)N1CCc2c(oc3c2C(=O)C(=O)c2ccccc2-3)C1=O`, the concentration for half-maximal inhibition (IC50) in assay [1] turned out to be 1930 nM; in assay [2], 2320 nM.
On the same counts, the results for `COC(=O)[C@H](C)N1CCc2c(oc3c2C(=O)C(=O)c2ccccc2-3)C1=O` are 680 nM and 1210 nM.
For the molecule `CN1CCN(CCN2CCc3c(oc4c3C(=O)C(=O)c3ccccc3-4)C2=O)CC1`, the IC50 in assay [1] was determined as 1300 nM; in assay [2] it was 410 nM.
Turning to `CN1CCN(CCCN2CCc3c(oc4c3C(=O)C(=O)c3ccccc3-4)C2=O)CC1`, the IC50 in assay [1] was 750 nM; in assay [2] it was 770 nM.

In general, IC50 refers to the point on the concentration scale where inhibition reaches its midpoint.
